Results taken from patent publication US20030144249A1, “Use of organophosphorous compounds for producing a medicament for treating infections” (priority 2000, published 2003).
Where a name gives a salt, the structure may show the parent alone.

Legend:
Avena fatua [1] = test: Herbicidal activity, soil, pre-emergence; assay type: in vivo; conditions: read-out: Herbicidal activity, Avena fatua
Protocol: (§1) Herbicidal activity is determined using standard methods.
(§2) Substances 1 to 8 listed on page 5 are again investigated.

Abutilon theophrasti [2] = test: Herbicidal activity, soil, pre-emergence; assay type: in vivo; conditions: read-out: Herbicidal activity, Abutilon theophrasti
Protocol: as §1, §2

Cyperus esculentus [3] = test: Herbicidal activity, soil, pre-emergence; assay type: in vivo; conditions: read-out: Herbicidal activity, Cyperus esculentus
Protocol: as §1, §2

Xanthium strumarium [4] = test: Herbicidal activity, soil, pre-emergence; assay type: in vivo; conditions: read-out: Herbicidal activity, Xanthium strumarium
Protocol: as §1, §2

Amaranthus retroflexus [5] = test: Herbicidal activity, soil, pre-emergence; assay type: in vivo; conditions: read-out: Herbicidal activity, Amaranthus retroflexus
Protocol: as §1, §2

Alopecurus myosuroides [6] = test: Herbicidal activity, soil, pre-emergence; assay type: in vivo; conditions: read-out: Herbicidal activity, Alopecurus myosuroides
Protocol: as §1, §2

Setaria viridis [7] = test: Herbicidal activity, soil, pre-emergence; assay type: in vivo; conditions: read-out: Herbicidal activity, Setaria viridis
Protocol: as §1, §2

Beta vulgaris [8] = test: Herbicidal activity, soil, pre-emergence; assay type: in vivo; conditions: read-out: Herbicidal activity, Beta vulgaris
Protocol: as §1, §2

Galium aperine [9] = test: Herbicidal activity, soil, pre-emergence; assay type: in vivo; conditions: read-out: Herbicidal activity, Galium aperine
Protocol: as §1, §2

Sinapis arvensis [10] = test: Herbicidal activity, soil, pre-emergence; assay type: in vivo; conditions: Mutarda arvensis, read-out: Herbicidal activity, Sinapis arvensis
Protocol: as §1, §2

Zea mays [11] = test: Herbicidal activity, soil, pre-emergence; assay type: in vivo; conditions: read-out: Herbicidal activity, Zea mays
Protocol: as §1, §2

Avena fatua [12] = test: Herbicidal activity, soil, post-emergence; assay type: in vivo; conditions: read-out: Herbicidal activity, Avena fatua
Protocol: as §1, §2

Abutilon theophrasti [13] = test: Herbicidal activity, soil, post-emergence; assay type: in vivo; conditions: read-out: Herbicidal activity, Abutilon theophrasti
Protocol: as §1, §2

Cyperus esculentus [14] = test: Herbicidal activity, soil, post-emergence; assay type: in vivo; conditions: read-out: Herbicidal activity, Cyperus esculentus
Protocol: as §1, §2

Xanthium strumarium [15] = test: Herbicidal activity, soil, post-emergence; assay type: in vivo; conditions: read-out: Herbicidal activity, Xanthium strumarium
Protocol: as §1, §2

Amaranthus retroflexus [16] = test: Herbicidal activity, soil, post-emergence; assay type: in vivo; conditions: read-out: Herbicidal activity, Amaranthus retroflexus
Protocol: as §1, §2

Alopecurus myosuroides [17] = test: Herbicidal activity, soil, post-emergence; assay type: in vivo; conditions: read-out: Herbicidal activity, Alopecurus myosuroides
Protocol: as §1, §2

Setaria viridis [18] = test: Herbicidal activity, soil, post-emergence; assay type: in vivo; conditions: read-out: Herbicidal activity, Setaria viridis
Protocol: as §1, §2

Beta vulgaris [19] = test: Herbicidal activity, soil, post-emergence; assay type: in vivo; conditions: read-out: Herbicidal activity, Beta vulgaris
Protocol: as §1, §2

Galium aperine [20] = test: Herbicidal activity, soil, post-emergence; assay type: in vivo; conditions: read-out: Herbicidal activity, Galium aperine
Protocol: as §1, §2

Sinapis arvensis [21] = test: Herbicidal activity, soil, post-emergence; assay type: in vivo; conditions: Mutarda arvensis, read-out: Herbicidal activity, Sinapis arvensis
Protocol: as §1, §2

Zea mays [22] = test: Herbicidal activity, soil, post-emergence; assay type: in vivo; conditions: read-out: Herbicidal activity, Zea mays
Protocol: as §1, §2

Echinochloa = test: Herbicidal activity, water, pre-emergence; assay type: in vivo; conditions: read-out: Herbicidal activity, Echinochloa
Protocol: as §1, §2

Lepidium = test: Herbicidal activity, water, pre-emergence; assay type: in vivo; conditions: read-out: Herbicidal activity, Lepidium
Protocol: as §1, §2

Solanum = test: Herbicidal activity, water, pre-emergence; assay type: in vivo; conditions: read-out: Herbicidal activity, Solanum
Protocol: as §1, §2

Rice = test: Herbicidal activity, water, pre-emergence; assay type: in vivo; conditions: Oryza sativa, read-out: Herbicidal activity, Rice
Protocol: as §1, §2

[23] = target: T1, DOXP reductoisomerase from Helicobacter pylori (Helicobacter pylori, UniProt P56139); test: DOXP reductoisomerase inhibition (NADPH oxidation at 365 nm); assay type: biochemical
T1 construct: made in house; host or cells: Helicobacter pylori (so in the source)
T1 sequence (P56139 1-368): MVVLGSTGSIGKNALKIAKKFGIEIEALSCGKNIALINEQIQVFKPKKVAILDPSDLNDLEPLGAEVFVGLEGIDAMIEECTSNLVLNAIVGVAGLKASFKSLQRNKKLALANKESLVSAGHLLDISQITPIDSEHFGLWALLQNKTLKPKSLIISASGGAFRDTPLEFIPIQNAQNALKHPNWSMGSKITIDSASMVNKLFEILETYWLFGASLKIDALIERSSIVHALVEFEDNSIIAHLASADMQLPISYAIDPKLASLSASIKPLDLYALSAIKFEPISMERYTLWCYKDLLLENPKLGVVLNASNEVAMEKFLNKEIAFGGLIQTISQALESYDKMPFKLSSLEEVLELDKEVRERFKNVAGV
Protocol: The DOXP reductoisomerase of Helicobacter pylori was expressed as a recombinant protein in Helicobacter pylori. The activity of DOXP reductoisomerase was determined in a batch containing 100 mM tris-HCl (pH=7.5), 1 mM MnCl2, 0.3 mM NADPH and 1 mM DOXP.
The oxidation of NADPH was here measured at 365 nm in a spectrophotometer. The inhibition studies were performed by measuring the activity of DOXP reductoisomerase in the presence of compounds 1 to 8 (see page 5) at various concentrations between 0. 1 and 100 μmol l^−1.

CP(=O)(O)C(O)CNCN(O)C(=O)c1ccco1 (stereo not drawn) [Compound 5, 2-(N-2-Furanoyl-N-hydroxy-aminomethyl)amino-1-hydroxyethylmethylphosphinic acid, sodium salt] gave a pest or weed control at 2000 g/ha (Avena fatua [1]) of 0%, a pest or weed control at 2000 g/ha (Abutilon theophrasti [2]) of 0% and a pest or weed control at 2000 g/ha (Cyperus esculentus [3]) of 0%. The pest or weed control at 2000 g/ha (Xanthium strumarium [4]) was 0%, the pest or weed control at 2000 g/ha (Amaranthus retroflexus [5]) was 0% and the pest or weed control at 2000 g/ha (Alopecurus myosuroides [6]) was 50%. The pest or weed control at 2000 g/ha (Setaria viridis [7]) was 0%, the plant injury at 2000 g/ha (Beta vulgaris [8]) was 30% and the pest or weed control at 2000 g/ha (Galium aperine [9]) was 0%. For the same compound, the pest or weed control at 2000 g/ha (Sinapis arvensis [10]) was 50%, the plant injury at 2000 g/ha (Zea mays [11]) was 0% and the pest or weed control at 2000 g/ha (Avena fatua [12]) was 80%. It also gave a pest or weed control at 2000 g/ha (Abutilon theophrasti [13]) of 40%, a pest or weed control at 2000 g/ha (Cyperus esculentus [14]) of 0% and a pest or weed control at 2000 g/ha (Xanthium strumarium [15]) of 60%. The pest or weed control at 2000 g/ha (Amaranthus retroflexus [16]) was 30%, the pest or weed control at 2000 g/ha (Alopecurus myosuroides [17]) was 70% and the pest or weed control at 2000 g/ha (Setaria viridis [18]) was 95%. For the same compound, the plant injury at 2000 g/ha (Beta vulgaris [19]) was 40%, the pest or weed control at 2000 g/ha (Galium aperine [20]) was 80% and the pest or weed control at 2000 g/ha (Sinapis arvensis [21]) was 90%. It also gave a plant injury at 2000 g/ha (Zea mays [22]) of 80%, a pest or weed control at 4000 g/ha (Echinochloa) of 80% and a pest or weed control at 4000 g/ha (Lepidium) of 40%. The pest or weed control at 4000 g/ha (Solanum) was 0%, the plant injury at 4000 g/ha (Rice) was 40% and the IC50 [23] was 130 nM.

O=CN(O)CNCP(=O)(O)O [Compound 8] gave a pest or weed control at 1000 g/ha (Avena fatua [1]) of 30%, a pest or weed control at 1000 g/ha (Abutilon theophrasti [2]) of 0% and a pest or weed control at 1000 g/ha (Cyperus esculentus [3]) of 0%. It also gave a pest or weed control at 1000 g/ha (Xanthium strumarium [4]) of 0%, a pest or weed control at 1000 g/ha (Amaranthus retroflexus [5]) of 20% and a pest or weed control at 1000 g/ha (Alopecurus myosuroides [6]) of 30%. For the same compound, the pest or weed control at 1000 g/ha (Setaria viridis [7]) was 0%, the plant injury at 1000 g/ha (Beta vulgaris [8]) was 40% and the pest or weed control at 1000 g/ha (Galium aperine [9]) was 0%. The pest or weed control at 1000 g/ha (Sinapis arvensis [10]) was 30%, the plant injury at 1000 g/ha (Zea mays [11]) was 30% and the pest or weed control at 1000 g/ha (Avena fatua [12]) was 80%. It also gave a pest or weed control at 1000 g/ha (Abutilon theophrasti [13]) of 50%, a pest or weed control at 1000 g/ha (Cyperus esculentus [14]) of 0% and a pest or weed control at 1000 g/ha (Xanthium strumarium [15]) of 90%. It also gave a pest or weed control at 1000 g/ha (Amaranthus retroflexus [16]) of 50%, a pest or weed control at 1000 g/ha (Alopecurus myosuroides [17]) of 80% and a pest or weed control at 1000 g/ha (Setaria viridis [18]) of 90%. The plant injury at 1000 g/ha (Beta vulgaris [19]) was 50%, the pest or weed control at 1000 g/ha (Galium aperine [20]) was 70% and the pest or weed control at 1000 g/ha (Sinapis arvensis [21]) was 70%. The plant injury at 1000 g/ha (Zea mays [22]) was 70%, the pest or weed control at 2000 g/ha (Echinochloa) was 40% and the pest or weed control at 2000 g/ha (Lepidium) was 30%. It also gave a pest or weed control at 2000 g/ha (Solanum) of 30%, a plant injury at 2000 g/ha (Rice) of 30% and an IC50 [23] of 60 nM.
